# Measurements: US20240374487A1, “ANTI-AGING AGENT, COSMETIC PRODUCT, WET TOWEL, AND HYGIENE PRODUCT” (VB JAPAN TECHNOLOGY CO., LTD., priority 2021, published 2024)
# Experiments:
# [1] = system: AGE receptor (FEEL-1, FEEL-2, CD-36, AGE-R1, AGE-R2, AGE-R3 and RAGE); test: mRNA levels of AGE receptors by qRT-PCR in normal human dermal fibroblasts; assay type: cell-based; settings: VB alone, no AGE, 37° C. 4 hours, compared with untreated group
# Description: (§1) Normal human dermal fibroblasts (NHDF), juvenile foreskin (C-12300, PromoCell) were cultured in a dedicated medium, Fibroblast Growth Medium (C-23010, PromoCell) at 37° C. in a 5% CO2 incubator.
# (§2) First, as a co-existence group of VB and AGE, normal human dermal fibroblasts were treated with AGE (100 μg/mL), and the above VB2 (concentration after dilution: 115 μg/ml) and VB3 (concentration after dilution: 1000 μg/mL) diluted to an accurate 1/1000 amount were each added and retained at 37° C. for 4 hours. […]
# (§3) Then, total RNA was extracted from the cells using Trizol reagent (Ambion), and mRNA levels of AGE receptor (FEEL-1, FEEL-2, CD-36, AGE-R1, AGE-R2, AGE-R3 and RAGE) and heat shock protein (Hsp104, gp96, Hsp90, Hsp70, Hsp60, and Hsp32) were measured by qRT-PCR (one-step quantitative reverse transcription-polymerase chain reaction) method. […]
# (§4) The qRT-PCR method used for the measurement of AGE receptor, heat shock protein, aquaporin, hyaluronic acid, and Elastin will be described. In the qRT-PCR method, 500 ng of the obtained total RNA was used as a template for PCR, and one step RT-PCR capable of performing CDNA synthesis by a reverse transcription reaction (Reverse Transcriptase; RT reaction) and quantitative PCR in one test tube was performed using Luna Universal One-Step qRT-PCR Kit. […]
# FEEL-1 = FEEL-1 mRNA level by qRT-PCR in AGE-treated fibroblasts; assay type: cell-based, human; settings: co-existence with AGE 100 μg/mL, 4 hours, compared with AGE single stimulation group
# Description: as §1, §2, §3, §4
# FEEL-2 = FEEL-2 mRNA level by qRT-PCR in AGE-treated fibroblasts; assay type: cell-based, human; settings: co-existence with AGE 100 μg/mL, 4 hours, compared with AGE single stimulation group
# Description: as §1, §2, §3, §4
# RAGE = RAGE mRNA level by qRT-PCR in AGE-treated fibroblasts; assay type: cell-based, human; settings: co-existence with AGE 100 μg/mL, 4 hours, compared with AGE single stimulation group
# Description: as §1, §2, §3, §4
# [2] = system: heat shock protein (Hsp104, gp96, Hsp90, Hsp70, Hsp60, and Hsp32); test: mRNA levels of heat shock proteins by qRT-PCR in fibroblasts; assay type: cell-based, human; settings: 4 hours
# Description: as §1
# First, as a co-existence group of VB and AGE, normal human dermal fibroblasts were treated with AGE (100 μg/mL), and the above VB2 (concentration after dilution: 115 μg/ml) and VB3 (concentration after dilution: 1000 μg/mL) diluted to an accurate 1/1000 amount were each added and retained at 37° C. for 4 hours.
# In addition, as the VB single stimulation group, normal human dermal fibroblasts were not treated with AGE, and the above VB2 and VB3 diluted to an accurate 1/1000 amount were each added and held at 37° C. for 4 hours. Furthermore, as the AGE single stimulation group, normal human dermal fibroblasts were treated with AGE and kept at 37° C. for 4 hours without addition of VB2 or VB3. In addition, as an untreated group, normal human dermal fibroblasts were not treated with AGE, and were kept at 37° C. for 4 hours without adding VB2 or VB3.
# Then, total RNA was extracted from the cells using Trizol reagent (Ambion), and mRNA levels of AGE receptor (FEEL-1, FEEL-2, CD-36, AGE-R1, AGE-R2, AGE-R3 and RAGE) and heat shock protein (Hsp104, gp96, Hsp90, Hsp70, Hsp60, and Hsp32) were measured by qRT-PCR (one-step quantitative reverse transcription-polymerase chain reaction) method.
# The measurement results for AGE receptor are shown in FIG. 1, and the measurement results for heat shock protein are shown in FIG. 2. In FIG. 1 and FIG. 2, for the co-existence group of AGE and VB, samples to which VB2 and VB3 were added are indicated as VB2(+)AGE and VB3(+)AGE, respectively, and these values were shown in comparison with the AGE single stimulation group. In addition, for the VB single stimulation group, samples to which VB2 and VB3 were added were indicated as VB2 alone and VB3 alone, respectively, and these values were shown in comparison with the untreated group.
# (§5) The qRT-PCR method used for the measurement of AGE receptor, heat shock protein, aquaporin, hyaluronic acid, and Elastin will be described. In the qRT-PCR method, 500 ng of the obtained total RNA was used as a template for PCR, and one step RT-PCR capable of performing CDNA synthesis by a reverse transcription reaction (Reverse Transcriptase; RT reaction) and quantitative PCR in one test tube was performed using Luna Universal One-Step qRT-PCR Kit.
# As a PCR device, Thermal Cycler Dice Real Time System II manufactured by Takara was used. […]
# (§6) The reaction was performed under the conditions of 1 cycle of 30 seconds at 95° C., and further cycles of 5 seconds at 95° C. and 30 seconds at 60° C. for 50 cycles. A variation in mRNA expression by 4 times or more (2 cycles as PCR reaction) was determined as a significant difference.
# intracellular ROS [3] = test: Intracellular ROS against AGE (DCF-DA fluorescence); assay type: cell-based, human; settings: AGE 100 μg/mL, 4 hours, FIG. 3
# Description: as §1
# Normal human dermal fibroblasts were treated with AGE (100 μg/mL) and maintained at 37° C. for 4 hours with the addition of VB2 and VB3, respectively. Here, VB2 and VB3 were added at concentrations of 1 μg/mL, 10 μg/mL, 100 μg/mL, and 300 μg/mL, respectively. In FIGS. 3 and 4, which are graphs showing the results, those to which VB2was added were denoted as “VB2-AGE”, and those to which VB3 was added were denoted as “VB3-AGE”.
# As Control, measurement was also performed on normal human dermal fibroblasts which were not treated with AGE and were held at 37° C. for 4 hours without addition of VB2 or VB3, and as an AGE single stimulation group, measurement was also performed on normal human dermal fibroblasts which were treated with AGE (100 μg/mL) and were held at 37° C. for 4 hours without addition of VB2 or VB3 (in FIGS. 3 and 4, it is denoted as “AGE”.).
# Measurement of intracellular ROS was performed using fluorescence using dichlorofluorescin diacetate (DCF-DA; Invitrogen, Carlsbad, CA, USA). […] The intracellular ROS level was measured at an excitation wavelength of 525 nm using fluorescence intensity using the micro plate reader (SYNERGY/HT, BioTek, Japan).
# [4] = system: normal human dermal fibroblasts; test: Cell viability under hydrogen peroxide oxidative stress (Cell counting-8 kit); assay type: cell-based; settings: for cell viability, trend: 1-300 μg/mL
# Description: as §1
# (§7) Normal human dermal fibroblasts were cultured for 2 hours in a culture solution to which 0.2 mM hydrogen peroxide was added, then washed off with PBS, and replaced with a normal medium to continue the cultivation. VB2 and VB3 were each added at any timing before or after hydrogen peroxide was added, and co-cultured for 4 hours. Thereafter, the cells or the culture solution were recovered.
# In FIG. 5 which is a graph showing the results, a sample obtained by adding VB2 or VB3 after adding hydrogen peroxide was denoted as “H2O2-VB2” and “H2O2-VB3”, respectively, and a sample obtained by adding hydrogen peroxide after adding VB2 or VB3 was denoted as “VB2-H2O2” and “VB3-H2O2”, respectively.
# Here, VB2 and VB3 were added at concentrations of 1 μg/mL, 10 μg/mL, 100 μg/mL, and 300 μg/mL, respectively.
# The normal human dermal fibroblasts to which neither hydrogen peroxide nor VB2 nor VB3 was added were treated in the same manner as described above, and measured as Control. In addition, a sample to which VB2 or VB3 was not added (in FIG. 5, it is denoted as “H2O2”) was also treated in the same manner as described above, and measurement was performed.
# The number of surviving cells in normal human dermal fibroblasts was measured using Cell counting −8 kit (DOJINDO: , Japan).
# intracellular ROS [5] = test: Intracellular ROS production against hydrogen peroxide (DCF-DA); assay type: cell-based, human; settings: added before and after 0.2 mM hydrogen peroxide, 1-300 μg/mL
# Description: Measurement of intracellular ROS was performed using fluorescence using dichlorofluorescin diacetate (DCF-DA; Invitrogen, Carlsbad, CA, USA). Specifically, cells were washed with PBS, and then incubated with 10 μM DCF-DA at 37° C. for 20 minutes. The intracellular ROS level was measured at an excitation wavelength of 525 nm using fluorescence intensity using the micro plate reader (SYNERGY/HT, BioTek, Japan).
# as §7
# According to the procedure described in “Measurement of Cell Viability” above, normal human dermal fibroblasts were treated and cultured (co-culture), and cells or the culture solution was recovered. The concentrations of VB2 and VB3 used and the notation of the samples in FIGS. 6 and 7, which are graphs showing the results, are also similar to the above “Measurement of Cell Viability”.
# The measurement of intracellular ROS and the measurement of superoxide (SOD) were performed by the same methods as the methods described in “Measurement of Intracellular Reactive Oxygen (ROS) Production and Superoxide (SOD) against AGE” above, respectively.
# FIGS. 6 and 7 show the results of each sample when Control is 100%.
# SOD = SOD amount against hydrogen peroxide (SOD Assay Kit); assay type: cell-based, human; settings: added before and after 0.2 mM hydrogen peroxide, 1-300 μg/mL (H2O2 only 56% of Control)
# Description: Superoxide (SOD) was measured using SOD Assay Kit (Cayman Chemical, Ann arbor, MI, USA). Cells that had been subjected to various treatments were incubated for 24 hours, and then a Lysis buffer was added, homogenized, and centrifuged. Then, 10 μL of each sample was mixed with 200 μL of xanthine oxidase at room temperature. After 30 minutes, the absorbance at 450 nm was measured.
# as §7
# According to the procedure described in “Measurement of Cell Viability” above, normal human dermal fibroblasts were treated and cultured (co-culture), and cells or the culture solution was recovered. The concentrations of VB2 and VB3 used and the notation of the samples in FIGS. 6 and 7, which are graphs showing the results, are also similar to the above “Measurement of Cell Viability”. […]
# AQP-1 = AQP-1 mRNA level under oxidative stress (qRT-PCR); assay type: cell-based, human
# Description: as §7
# (§8) According to the procedure described in “Measurement of Cell Viability” above, normal human dermal fibroblasts were treated and cultured (co-culture), and cells or the culture solution was recovered. The notation of the sample in FIGS. 8 and 9, which are graphs showing the results, is also the same as in the “Measurement of Cell Viability” described above.
# (§9) The measurement of aquaporin was performed for AQP-1 and AQP-3 by a qRT-PCR method, and the measurement result was obtained by a ΔΔCt method. […] The qRT-PCR method is s specifically described in “qRT-PCR method” described later.
# as §5
# (§10) As a PCR device, Thermal Cycler Dice Real Time System II manufactured by Takara was used. As one reaction system, 10 μL of Luna Universal One-Step Reaction Mix (2×), 1 μL of Luna WarmStart RT Enzyme Mix (20×), 0.8 μL of Forward primer (10 μM), 0.8 μL of Reverse primer, and Total RNA as a template for the PCR were used, and the total amount was adjusted to 20 μL in Nuclease-free Water.
# as §6
# AQP-3 = AQP-3 mRNA level under oxidative stress (qRT-PCR); assay type: cell-based, human
# Description: as §7, §8, §9, §5, §10, §6
# hyaluronic acid = test: Hyaluronic acid secreted into culture supernatant (ELISA); assay type: cell-based, human
# Description: as §7
# (§11) According to the procedure described in “Measurement of Cell Viability” above, normal human dermal fibroblasts were treated and cultured (co-culture), and cells or the culture solution was recovered. The concentrations of VB2 and VB3 used and the notation of the samples in FIGS. 10 and 11, which are graphs showing the results, are also similar to the above “Measurement of Cell Viability”.
# (§12) The production amounts of hyaluronic acid and Elastin were measured by an ELISA method. The results of measuring the amount of hyaluronic acid secreted from normal human dermal fibroblasts into the culture supernatant by the ELISA method are shown in FIG. 10, and the results of measuring the amount of intracellular Elastin production by the ELISA method are shown in FIG. 11.
# Elastin = test: Intracellular Elastin production (ELISA); assay type: cell-based, human
# Description: as §7, §11, §12
# [6] = added before or after 0.2 mM hydrogen peroxide
# [7] = added in advance before oxidative stress, compared with addition after
# [8] = added in advance before applying oxidative stress
substance,measurement,setting,value
Na9[SbW9O33] [VB3],mRNA expression of AGE receptor,[1],did not affect
same,mRNA level of FEEL-1,FEEL-1,significantly increased
same,mRNA level of FEEL-2,FEEL-2,significantly increased
same,mRNA level of RAGE,RAGE,significantly increased
same,mRNA expression of Hsp,"[2]; VB alone, no AGE, compared with untreated group",did not affect
same,mRNA levels of all Hsps other Hsp 90 among the examined Hsps,"[2]; co-existence with AGE 100 μg/mL, compared with AGE single stimulation group",significantly increased
same,intracellular ROS under AGE stimulation,intracellular ROS [3],suppress the increase in ROS
same,maximum cell viability,"[4]; added after 0.2 mM hydrogen peroxide, 300 μg/mL, % of Control (H2O2 only 59%)",78%
same,"cell viability, trend",[4]; added after 0.2 mM hydrogen peroxide,increased in a concentration-dependent manner
same,"cell viability, trend",[4]; added in advance before 0.2 mM hydrogen peroxide,significant increase in a concentration-dependent manner
same,ROS production,intracellular ROS [5],suppressed in a concentration-dependent manner
same,SOD amount,SOD,tended to be recovered in a concentration-dependent manner
same,mRNA level of AQP-1,AQP-1; [6],increased
same,"AQP-1 mRNA repair ability, addition before vs after oxidative stress",AQP-1; [7],tended to have a stronger repair ability
same,mRNA level of AQP-3,AQP-3; [6],increased
same,"AQP-3 mRNA repair ability, addition before vs after oxidative stress",AQP-3; [7],tended to have a stronger repair ability
same,amount of hyaluronic acid,"hyaluronic acid; 0.2 mM hydrogen peroxide oxidative stress, culture supernatant",tended to be recovered
same,"hyaluronic acid repair ability, addition before vs after oxidative stress",hyaluronic acid; [7],tended to have a stronger repair ability
same,Elastin production amount,Elastin; added after application of oxidative stress (H2O2 only 56% of Control),could not be recovered
same,Elastin production amount,Elastin; [8],significant recovery
same,concentration at which Elastin production amount was significantly higher than Control,Elastin; [8],300 µg/mL
